# Source: US20250223262A1, “[…] OF […] REDUCED HERG ACTIVITY AND MOP BINDING” (Heinrich-Heine-Universität Düsseldorf, priority 2022, published 2025)
# How the values were obtained:
# [1] = target: T1, potassium voltage-gated channel subfamily H member 2 (hERG) (Homo sapiens, UniProt Q12809); experiment: hERG channel binding assay ([3H] Dofetilide); conditions: SafetyScreen44 Panel, test concentration 1.0 10^−5 M
# T1 construct: expressed in transfected cells; host or cells: HEK-293
# Experimental: (§1) For the hERG channel binding assay, compound binding was calculated as % inhibition of the binding of a radioactively labeled ligand that is specific for the target (i.e., [3H] Dofetilide). HEK-293 cells (human embryonic kidney cells) were used for these binding assays. The compounds were tested at a concentration of 10 μM and 2 repetitions were conducted for each compound.
# [2] = target: μ-opioid (MOP) receptor (Homo sapiens, UniProt P35372); experiment: MOP receptor inhibition, SafetyScreen44 Panel; type: binding; conditions: test concentration 1.0 10^−5 M
# [3] = test system: mouse pancreatic islets; experiment: Insulin secretion assay on isolated pancreatic islets (in vitro); type: cell-based; conditions: low (2 mM) and high glucose (20 mM), FIG. 1
# Experimental: Statistical testing: two-way ANOVA followed by Sidak's multiple comparison test. All values are shown with mean±SEM.
# Further, insulin secretion assays (in vitro) were performed.
# Insulin secretion assays for the compounds were performed like in paragraph [0208].
# [4] = Intraperitoneal glucose tolerance test and plasma insulin (in vivo); design: species or system mice; conditions: for effect on blood glucose concentration compared to control: glucose tolerance test in vivo
# Experimental: (A) n=8 mice for control and n=7 mice for Kom56, (D) n=8 mice each. (B,E) Blood glucose concentrations of mice during i.p. glucose tolerance tests with 1.5 mg/g BW glucose with or without i.p. compound administration. n=8 mice each. (C,F) AUC0-120min calculation of blood glucose concentrations of B,E. Statistical testing: (A,D) two-way ANOVA followed by Sidak's multiple comparison test. (B,C,E,F) unpaired two-sided Student's t-test. All values are shown with mean±SEM, except for glucose tolerance tests (B,E), in which all values are mean±SD.
# Further, glucose tolerance tests (in vivo) were performed, if the corresponding in vitro assays were “positive”.
# Glucose tolerance tests for the compounds were performed like in paragraph [0209].
# [5] = Oral glucose tolerance test and plasma insulin (in vivo); conditions: mice, FIG. 3
# Experimental: (B) Blood glucose concentrations of mice during oral glucose tolerance test with 1.5 mg/g BW glucose with or without p.o. compound administration. n=7 mice for control and n=8 mice for Kom56. (C) AUC0-120min calculation of blood glucose concentrations of B. Statistical testing: (A) two-way ANOVA followed by Sidak's multiple comparison test. (B,C) unpaired two-sided Student's t-test. All values are shown with mean±SEM, except for glucose tolerance test (B), in which all values are mean±SD.
# [6] = Von Frey monofilament paw withdrawal test; type: in vivo; conditions: mice, i.p. administration, paw withdrawal thresholds versus PBS, FIG. 5
# Source text: (A) Force that is needed to reach a 50% threshold, and (B) force that is needed to reach a 75% threshold in paw withdrawal. n=6 mice each. Statistical testing: (A,B) unpaired two-sided Student's t-test. All values are shown with mean±SEM.
# [7] = test system: mouse pancreatic islets; experiment: Islet cell death induced by oxidative stress (H2O2), flow cytometry; type: cell-based; conditions: 150 μM H2O2, 1 and 0.1 μM Kom56, 24 h, FIG. 6
# Experimental: (A) Healthy control, (B) pancreatic islets incubated with 150 μM H2O2, (C) 150 μM H2O2 plus 1 μM Kom56, and (D) 150 μM H2O2 plus 0.1 μM Kom56. Analyzed by flow cytometry. Pancreatic islets were dissociated using trypsin and stained with Fixable Viability Stain 660 (FVS660). FVS660+=dead cells, FVS660-=living cells, values are shown in %.
# [8] = test system: mouse pancreatic islets; experiment: Streptozotocin-induced islet cell death; type: cell-based; conditions: 2 mM streptozotocin, 1 μM Kom56, 24 h, FIG. 7
# Source text: Blue (Hoechst), nuclei; red (ethidium homodimer1), dead cells; green (calcein), viable cells. (B) Area of dead cells in mouse islets treated as described in A. n=4 islet batches each with 11-14 islets per batch for each group. Statistical testing: (B) one-way ANOVA followed by Tukey's multiple comparison test. All values are shown with mean±SEM. (A) Scale bars, 50 μm.
# [9] = target: T2, hERG (potassium voltage-gated channel subfamily H member 2) (Homo sapiens, UniProt Q12809); experiment: hERG channel binding assay ([3H] Dofetilide); conditions: human, HEK-293 cells (hERG channel binding assay), probe [3H] Dofetilide; 10 μM, [3H] Dofetilide, HEK-293 cells, 2 repetitions; read-out: hERG inhibition (% inhibition of the binding of a ligand specific for the target)
# T2 construct: expressed in transfected cells; host or cells: HEK-293
# Experimental: as §1
# [10] = test system: SafetyScreen44™ Panel with all 44 targets; experiment: SafetyScreen44 Panel toxicological test; conditions: test concentration 1.0 10^−5 M
# Experimental: Inhibition of potassium voltage-gated channel subfamily H member 2 (hERG) of the compounds was measured as in the SafetyScreen44™ Panel (see Example 3). The hERG channel binding assay is part of the SafetyScreen44™ Panel, but can also be conducted solely. The entire SafetyScreen44™ Panel with all 44 targets was just conducted for the three compounds as shown in [0206], for the other molecules just the hERG inhibition was measured.
# Chain of μ-opioid (MOP) receptor (P35372 whole entry): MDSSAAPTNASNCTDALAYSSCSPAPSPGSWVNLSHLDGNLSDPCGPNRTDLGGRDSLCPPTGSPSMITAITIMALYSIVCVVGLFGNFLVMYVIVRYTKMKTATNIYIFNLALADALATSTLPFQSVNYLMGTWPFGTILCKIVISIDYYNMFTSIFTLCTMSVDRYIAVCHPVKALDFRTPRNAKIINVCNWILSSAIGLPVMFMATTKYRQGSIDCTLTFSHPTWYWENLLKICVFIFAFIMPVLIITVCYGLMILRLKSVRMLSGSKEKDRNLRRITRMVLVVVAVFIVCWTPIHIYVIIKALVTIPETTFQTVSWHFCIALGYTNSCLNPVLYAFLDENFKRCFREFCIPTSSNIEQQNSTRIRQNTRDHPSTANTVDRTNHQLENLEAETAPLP
# T1 sequence (Q12809 whole entry): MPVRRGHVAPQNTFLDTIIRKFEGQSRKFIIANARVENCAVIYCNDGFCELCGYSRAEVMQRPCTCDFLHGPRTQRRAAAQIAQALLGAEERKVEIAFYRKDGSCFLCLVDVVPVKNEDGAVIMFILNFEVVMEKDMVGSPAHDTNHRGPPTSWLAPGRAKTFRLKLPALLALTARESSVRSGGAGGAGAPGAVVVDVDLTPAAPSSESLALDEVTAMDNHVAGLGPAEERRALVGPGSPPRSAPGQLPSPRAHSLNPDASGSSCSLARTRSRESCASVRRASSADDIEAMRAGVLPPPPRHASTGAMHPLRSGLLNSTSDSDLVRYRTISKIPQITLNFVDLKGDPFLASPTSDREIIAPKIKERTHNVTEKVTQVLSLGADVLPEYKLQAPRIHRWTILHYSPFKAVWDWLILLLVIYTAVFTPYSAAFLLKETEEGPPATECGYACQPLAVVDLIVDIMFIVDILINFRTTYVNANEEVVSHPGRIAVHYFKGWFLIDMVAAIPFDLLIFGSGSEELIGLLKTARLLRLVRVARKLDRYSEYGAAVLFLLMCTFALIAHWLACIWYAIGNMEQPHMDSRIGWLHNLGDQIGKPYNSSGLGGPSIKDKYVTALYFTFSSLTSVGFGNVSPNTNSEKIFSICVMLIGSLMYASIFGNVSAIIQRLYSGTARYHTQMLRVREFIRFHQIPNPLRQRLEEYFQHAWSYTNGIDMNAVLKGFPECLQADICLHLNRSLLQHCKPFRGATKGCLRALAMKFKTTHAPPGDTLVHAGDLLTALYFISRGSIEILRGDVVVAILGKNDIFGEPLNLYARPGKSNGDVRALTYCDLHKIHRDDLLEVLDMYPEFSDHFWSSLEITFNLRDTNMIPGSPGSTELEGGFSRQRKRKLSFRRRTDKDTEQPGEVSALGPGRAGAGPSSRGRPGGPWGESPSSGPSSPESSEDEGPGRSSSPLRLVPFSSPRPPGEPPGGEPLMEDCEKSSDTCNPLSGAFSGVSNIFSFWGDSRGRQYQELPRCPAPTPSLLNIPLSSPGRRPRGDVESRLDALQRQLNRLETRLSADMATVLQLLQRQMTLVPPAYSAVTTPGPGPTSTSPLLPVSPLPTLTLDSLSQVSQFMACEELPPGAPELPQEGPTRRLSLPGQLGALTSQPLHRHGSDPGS
# T2 sequence (Q12809 whole entry): as above
Compound,hERG inhibition [%] [1] [%],effect on blood glucose concentration compared to control [4],toxicology (hits with over 50% inhibition) [10],inhibition at 10 µM [2] [%],further results
"COc1cc2c(cc1NC(=O)c1cncn1C)C[C@H]1C3CCCC[C@@]23CCN1C (stereo partly drawn) [Compound 7, N-[(1S,9S)-4-methoxy-17-methyl-17-azatetracyclo[7.5.3.0^1,^10,0^2,^7]heptadeca-2(7),3,5-trien-5-yl]-1-methyl-1H-imidazole-5-carboxamide]",7.9,significant effect,,,"MOP inhibition [%] [2]: 33.7%; glucose-stimulated insulin secretion from mouse pancreatic islets [3]: increases the glucose-stimulated insulin secretion; plasma insulin concentrations ([4]; mice, 30 min after i.p. administration together with glucose, FIG. 2): increases plasma insulin concentrations; glucose tolerance ([4]; mice, i.p. glucose tolerance test, 1.5 mg/g BW glucose, i.p. compound, FIG. 2): improves glucose tolerance; plasma insulin concentrations ([5]; 30 min after p.o. administration together with glucose): increases plasma insulin concentrations; glucose tolerance ([5]; oral glucose tolerance test, 1.5 mg/g BW glucose, p.o. compound): improves glucose tolerance; touch sensitivity during mechanical stimulation with Von Frey monofilaments [6]: reduces touch sensitivity; protection from cell death induced by oxidative stress [7]: protects mouse pancreatic islets from cell death induced by oxidative stress; protection from streptozotocin-induced cell death [8]: protects mouse pancreatic islets from streptozotocin-induced cell death"
"4-[(1S,9S)-4-methoxy-17-methyl-17-azatetracyclo[7.5.3.0^1,^10,0^2,^7]heptadeca-2(7),3,5-trien-5-yl]-1-methylpiperazin-2-one [Compound 36]",,slightly positive effect,,,
"COc1cc2c(cc1N1CC(N(C)C)C1)C[C@H]1C3CCCC[C@@]23CCN1C (stereo partly drawn) [Compound 35, 1-[(1S,9S)-4-methoxy-17-methyl-17-azatetracyclo[7.5.3.0^1,^10,0^2,^7]heptadeca-2(7),3,5-trien-5-yl]-N,N-dimethylazetidin-3-amine]",,slightly positive effect,,,inhibition at 10 µM [9]: < 15%
"COc1ccc2c(c1)[C@]13CCCC[C@@H]1[C@H](C2)N(C)CC3 [DXM, dextromethorphan]",20.9,,6,85,
"Br.Br.COc1cc2c(cc1-n1ccnc1)C[C@H]1[C@H]3CCCC[C@@]23CCN1C [DXM-2, (9S, 13S, 14S)-2-(1H-Imidazol-1-yl)-3-methoxy-17-methyl morphinan dihydrobromide]",51.8,,7,83.6,
